Results published in ChEMBL document CHEMBL1201862, “PubChem BioAssay data set” (2004).
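Step 1: Grow cells in 96-well plates. Step 2: Expose to compound for 48 hours at 5 concentrations. Step 3: Interpolate endpoints linearly; if unreached, use highest concentration. GI50 marks 50% less growth.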 Active and inactive are the calls of the source. Rule as the data show it: active = GI50 up to about 1.1 µM and inactive = higher.

Assays:
Experiment in all cases: NCI tumour cell line growth inhibition, 48 h
786-0 = system: 786-0
UACC-62 = system: UACC-62
SK-MEL-2 = system: SK-MEL-2
OVCAR-3 = system: OVCAR-3
UO-31 = system: UO-31
HOP-62 = system: HOP-62
T47D = system: T47D
M14 = system: M14
OVCAR-4 = system: OVCAR-4
NCI/ADR-RES = system: NCI/ADR-RES
MDA-MB-435 = system: MDA-MB-435
Hs-578T = system: Hs-578T
UACC-257 = system: UACC-257
K562 = system: K562
SNB-19 = system: SNB-19
A549 = system: A549
PC-3 = system: PC-3
SF-539 = system: SF-539
MCF7 = system: MCF7

SMILES | GI50 (786-0) | GI50 (UACC-62) | GI50 (SK-MEL-2) | GI50 (OVCAR-3) | GI50 (UO-31) | GI50 (HOP-62) | GI50 (T47D) | GI50 (M14) | GI50 (OVCAR-4) | GI50 (NCI/ADR-RES) | GI50 (MDA-MB-435) | GI50 (Hs-578T) | GI50 (UACC-257) | GI50 (K562) | GI50 (SNB-19) | GI50 (A549) | GI50 (PC-3) | GI50 (SF-539) | GI50 (MCF7)
O=C(Cn1c2ccc(Br)cc2c2nc3ccccc3nc21)Nc1ccccc1 | 14.3 µM (inactive) | 48.1 µM (inactive) | 55 µM (inactive) | > 100 µM (inactive) | 42.2 µM (inactive) | 27.9 µM (inactive) | 20.1 µM (inactive) | 30.1 µM (inactive) | 20.9 µM (inactive) | 20 µM (inactive) | 51.4 µM (inactive) | 26.7 µM (inactive) | 78.2 µM (inactive) | 38.8 µM (inactive) | 39.7 µM (inactive) | 17 µM (inactive) | 18 µM (inactive) | – | –
O=C(/C=C/c1ccc(Cl)cc1)Oc1ccc(/C=C2\CCCCC2=O)cc1 | > 100 µM (inactive) | > 100 µM (inactive) | > 100 µM (inactive) | > 100 µM (inactive) | > 100 µM (inactive) | > 100 µM (inactive) | > 100 µM (inactive) | > 100 µM (inactive) | > 100 µM (inactive) | – | > 100 µM (inactive) | > 100 µM (inactive) | > 100 µM (inactive) | – | > 10 µM (inactive) | > 100 µM (inactive) | > 100 µM (inactive) | > 100 µM (inactive) | > 100 µM (inactive)
CCOC(=O)C1=C(C)N(C)C23OC4(C(=O)OC)CC2c2ccccc2C1N3C4=O (stereo not given) | > 100 µM (inactive) | > 100 µM (inactive) | > 100 µM (inactive) | > 100 µM (inactive) | 25.1 µM (inactive) | > 100 µM (inactive) | > 100 µM (inactive) | 73.8 µM (inactive) | > 100 µM (inactive) | 86.9 µM (inactive) | 30.8 µM (inactive) | – | > 100 µM (inactive) | 83 µM (inactive) | > 100 µM (inactive) | > 100 µM (inactive) | > 100 µM (inactive) | 22.3 µM (inactive) | 28.1 µM (inactive)
Cc1cc2c(cc1C)[n+]([O-])c(N1CCN(c3ccc([N+](=O)[O-])cc3)CC1)c(C#N)[n+]2[O-] | 14.1 µM (inactive) | 20.3 µM (inactive) | 22 µM (inactive) | – | 23.5 µM (inactive) | 15.2 µM (inactive) | 16.3 µM (inactive) | 35.9 µM (inactive) | 39.4 µM (inactive) | 26.2 µM (inactive) | > 100 µM (inactive) | 34.6 µM (inactive) | 85.9 µM (inactive) | – | 18 µM (inactive) | 29.8 µM (inactive) | 32.3 µM (inactive) | – | 28.6 µM (inactive)
CCOC(=O)c1c(C)nc2c(c1-c1cn(-c3ccccc3)nc1-c1ccccc1)C(=O)c1ccccc1-2 | > 100 µM (inactive) | > 100 µM (inactive) | > 100 µM (inactive) | > 100 µM (inactive) | – | > 100 µM (inactive) | > 100 µM (inactive) | > 100 µM (inactive) | > 100 µM (inactive) | > 100 µM (inactive) | > 100 µM (inactive) | > 100 µM (inactive) | > 100 µM (inactive) | > 100 µM (inactive) | > 100 µM (inactive) | > 100 µM (inactive) | > 100 µM (inactive) | – | –
N#C[BH2-][n+]1cn(C2CC(O)C(COP(=O)(O)OC3CC(n4cnc5c(N)ncnc54)OC3CO)O2)c2nc(N)[nH]c(=O)c21 (stereo not given) | > 100 µM (inactive) | > 100 µM (inactive) | > 100 µM (inactive) | > 100 µM (inactive) | > 100 µM (inactive) | > 100 µM (inactive) | > 100 µM (inactive) | > 100 µM (inactive) | > 100 µM (inactive) | > 100 µM (inactive) | > 100 µM (inactive) | – | > 100 µM (inactive) | – | > 100 µM (inactive) | > 100 µM (inactive) | > 100 µM (inactive) | > 100 µM (inactive) | > 100 µM (inactive)
N#CC12C(=O)N=C(N)C1(C#N)C(c1ccco1)NC1=C2CCCC1 (stereo not given) | > 100 µM (inactive) | > 100 µM (inactive) | > 100 µM (inactive) | – | > 100 µM (inactive) | > 100 µM (inactive) | > 100 µM (inactive) | > 100 µM (inactive) | > 100 µM (inactive) | > 100 µM (inactive) | > 100 µM (inactive) | > 100 µM (inactive) | > 100 µM (inactive) | – | > 100 µM (inactive) | > 100 µM (inactive) | > 100 µM (inactive) | – | 75 µM (inactive)
Cc1ccc2nc(CN3CCCC(O)C3)cc(=O)n2c1 (stereo not given) | > 100 µM (inactive) | > 100 µM (inactive) | > 100 µM (inactive) | > 100 µM (inactive) | > 100 µM (inactive) | > 100 µM (inactive) | – | > 100 µM (inactive) | > 100 µM (inactive) | > 100 µM (inactive) | > 100 µM (inactive) | > 100 µM (inactive) | > 100 µM (inactive) | > 100 µM (inactive) | > 100 µM (inactive) | > 100 µM (inactive) | > 100 µM (inactive) | > 100 µM (inactive) | > 100 µM (inactive)
CCN(CC)CCCNC(=O)c1cc(-c2nccn2C)nc2ccccc12 | > 100 µM (inactive) | > 100 µM (inactive) | > 100 µM (inactive) | – | 50.2 µM (inactive) | > 100 µM (inactive) | > 100 µM (inactive) | > 100 µM (inactive) | 61.2 µM (inactive) | > 100 µM (inactive) | > 100 µM (inactive) | – | > 100 µM (inactive) | > 100 µM (inactive) | > 100 µM (inactive) | > 100 µM (inactive) | > 100 µM (inactive) | > 100 µM (inactive) | > 100 µM (inactive)
O=C1CCC[C@@H]2NC[C@@H](c3ccc4c(c3)OCO4)[C@H]12 | > 25 µM (inactive) | > 25 µM (inactive) | > 25 µM (inactive) | – | > 25 µM (inactive) | > 25 µM (inactive) | > 25 µM (inactive) | > 25 µM (inactive) | > 25 µM (inactive) | > 25 µM (inactive) | > 25 µM (inactive) | > 25 µM (inactive) | > 25 µM (inactive) | > 25 µM (inactive) | > 25 µM (inactive) | > 25 µM (inactive) | > 25 µM (inactive) | – | > 25 µM (inactive)
CO[C@H]1[C@@H](O)[C@H](O[C@@H]2C[C@H]3CC[C@@H]4[C@H](CC[C@]5(C)[C@@H](C6=CC(=O)OC6)CC[C@]45O)[C@@]3(C)[C@H](OC(C)=O)C2)O[C@@H](C)[C@H]1O | 1.84 µM (inactive) | 2.43 µM (inactive) | 2.88 µM (inactive) | 0.573 µM (active) | 1.27 µM (inactive) | 0.933 µM (active) | 3.19 µM (inactive) | 2.22 µM (inactive) | 1.39 µM (inactive) | 1.77 µM (inactive) | 3.19 µM (inactive) | 2.07 µM (inactive) | 2.84 µM (inactive) | 1.96 µM (inactive) | 4.28 µM (inactive) | 0.384 µM (active) | 2.26 µM (inactive) | 0.573 µM (active) | –
CN(C)/N=N/c1nc2c(c(=O)n(C)c(=O)n2C)n1C | > 100 µM (inactive) | > 100 µM (inactive) | > 100 µM (inactive) | > 100 µM (inactive) | > 100 µM (inactive) | > 100 µM (inactive) | 14.3 µM (inactive) | > 100 µM (inactive) | > 100 µM (inactive) | > 100 µM (inactive) | > 100 µM (inactive) | > 100 µM (inactive) | > 100 µM (inactive) | > 100 µM (inactive) | > 100 µM (inactive) | > 100 µM (inactive) | > 100 µM (inactive) | – | 7.5 µM (inactive)
CCOC(=O)NC(=S)NC(C)c1ccccc1 (stereo not given) | > 100 µM (inactive) | > 100 µM (inactive) | > 100 µM (inactive) | > 100 µM (inactive) | 70.6 µM (inactive) | > 100 µM (inactive) | 98.6 µM (inactive) | > 100 µM (inactive) | > 100 µM (inactive) | > 100 µM (inactive) | > 100 µM (inactive) | > 100 µM (inactive) | > 100 µM (inactive) | > 100 µM (inactive) | > 100 µM (inactive) | > 100 µM (inactive) | > 100 µM (inactive) | – | > 100 µM (inactive)
Cc1sc(Nc2ccccc2[N+](=O)[O-])c(C#N)c1C | 22.6 µM (inactive) | 77.8 µM (inactive) | – | 19.8 µM (inactive) | > 100 µM (inactive) | 20.8 µM (inactive) | 28.4 µM (inactive) | > 100 µM (inactive) | 43.6 µM (inactive) | 16.8 µM (inactive) | > 100 µM (inactive) | – | > 100 µM (inactive) | > 100 µM (inactive) | 26.2 µM (inactive) | > 100 µM (inactive) | 94.8 µM (inactive) | 21.5 µM (inactive) | 94.2 µM (inactive)
O=C1Nc2c(Cl)cc(Cl)cc2C1=O | 17.3 µM (inactive) | 15.8 µM (inactive) | 13.9 µM (inactive) | 20.3 µM (inactive) | 19.3 µM (inactive) | 18.5 µM (inactive) | – | 19.6 µM (inactive) | 17.8 µM (inactive) | 19.7 µM (inactive) | 4.27 µM (inactive) | 16.4 µM (inactive) | 18.6 µM (inactive) | 29.2 µM (inactive) | > 100 µM (inactive) | 19.3 µM (inactive) | 24.3 µM (inactive) | 17.2 µM (inactive) | 18.5 µM (inactive)
Oc1ccc2ccccc2c1/N=N/c1ccc(Br)cc1 | > 100 µM (inactive) | > 100 µM (inactive) | > 100 µM (inactive) | 86.9 µM (inactive) | > 100 µM (inactive) | 21 µM (inactive) | > 100 µM (inactive) | 87.5 µM (inactive) | 27.8 µM (inactive) | > 100 µM (inactive) | > 100 µM (inactive) | 24.7 µM (inactive) | > 100 µM (inactive) | > 100 µM (inactive) | > 100 µM (inactive) | > 100 µM (inactive) | > 100 µM (inactive) | – | –
